The results in this text go back to PubChem BioAssay AID2305 (GlaxoSmithKline (GSK), 2010).

Broadly, the IC50 is the concentration at which inhibition is half-maximal. A high value points to weaker potency.

For the test, the system named is P. falciparum 3D7 growth, pLDH absorbance. As to the kind of experiment: P. falciparum 3D7 growth inhibition, dose response, strain 3D7 (AID 2305).

On to `COc1ccc2nccc([C@@H](O)CN3CCC(NCc4nc5cc(F)c(F)cc5[nH]4)CC3)c2c1`, for which the IC50 is 530 nM.

`Nc1c(Cl)cc(C(O)CNCCCCCOCCc2ccc3occc3c2)cc1Cl` (stereo unspecified) had an IC50 of 690 nM.

Compound `COc1ccc(-c2cccc(CNC3CCN(C)CC3)c2)cc1S(=O)(=O)NCc1ccccc1` yielded an IC50 of 870 nM.

On to `Cc1cccc2[nH]c(-c3ccc(-c4cccc(CN5CCN(c6ccc(C#N)cn6)CC5)c4)s3)nc12`, for which the IC50 worked out at 1420 nM.

`CNCCCNc1ccnc2cc(Cl)ccc12` came in with an IC50 of 60 nM.

As to `COC(=O)C1=C(C)NC2=C(C(=O)CC(c3ccc(OC)c(OC)c3)C2)C1c1cccc(O)c1` (stereo unspecified), the IC50 is 730 nM.

Consider `Cn1nc(-c2ccccc2F)c2cc(C(=O)Nc3cccnc3)sc21`, for which the IC50 was found to be 810 nM.

Regarding `CCCNc1ccc2nccc(CCN3CCC(NCc4ccc5c(n4)NC(=O)CS5)CC3)c2n1`, the IC50 turned out to be 720 nM.

The compound `CC(C)(C)C1CCC(C(=O)c2ccc3ccccc3c2O)CC1` (stereo unspecified) had an IC50 of 750 nM.

For the compound `O=C(Nc1ccc(I)cc1)Nc1ccc(Cn2ncc(N3CCCNCC3)c(Cl)c2=O)cc1`, the IC50 worked out at 1120 nM.

Turning to `CCn1c(-c2nonc2N)nc2c(-c3cccc(Cl)c3)ncc(OCCCNCc3cnc(C)nc3N)c21`, the IC50 turned out to be 1010 nM.

As to `COc1cc(C(=O)Nc2cccc(-c3nc4ccccc4[nH]3)c2)ccc1OC(C)=O`, the IC50 was 760 nM.

Consider `Cc1ccc(C)c(NC(=O)Nc2ccc(Nc3nc(C)cc(N4CCOCC4)n3)cc2)c1`, for which the IC50 is 980 nM.

In turn, `CCOc1ccc2nc(C)cc(NN=Cc3cccc(C)n3)c2c1` displayed an IC50 of 750 nM.

In turn, `CCOC(=O)c1ccc(NC(=O)N[C@H]2CCN(CCCCCNC(=O)/C=C/c3ccc(Cl)c(Cl)c3)C2)cc1` registered an IC50 of 740 nM.

`Cc1[nH]c(C)c(-c2ccc(-c3ccc4c(c3)OCO4)nc2)c(=O)c1Br` showed an IC50 of 190 nM.

Consider `c1ccc(CN2CCN(CCCCNc3c4ccccc4nc4ccccc34)CC2)cc1`, for which the IC50 came out at 120 nM.

With `CC(C)NCc1ccc(-c2cccc(-c3nc4ccc(F)cc4[nH]3)c2)cc1`, the IC50 is 410 nM.

The compound `CN1CCC(Oc2ccc(CN3CC[C@H](NC(=O)c4cccc(C#N)c4)C3)c3ccccc23)C1` (stereo partly specified) registered an IC50 of 800 nM.

In the case of `O=C(NOCCCCOc1ccc(Cl)c(Cl)c1)c1ccccc1`, the IC50 worked out at 180 nM.

For the compound `O=[N+]([O-])c1ccc(NC(=NC2CCCc3ccccc32)Nc2ccccc2Br)c(O)c1` (stereo unspecified), the IC50 amounted to 920 nM.

In turn, `COc1ccccc1N1CCN(CCCCNC(=O)c2ccc(NC(=O)c3ccc(OC(F)(F)F)cc3)cc2)CC1` came in with an IC50 of 660 nM.

The compound `CN(C)C(CNC(=O)c1cc(-c2ccncc2)c(-c2ccc(NC(=O)Nc3cccc(Cl)c3)cc2)o1)c1ccccc1` (stereo unspecified) came in with an IC50 of 180 nM.

`COc1ccccc1CC1CCCN(C2CCC(NC(=O)c3cc4ccccc4[nH]3)CC2)C1` (stereo unspecified) registered an IC50 of 840 nM.

The compound `CCc1nc(N)nc(N)c1-c1ccc(C(C)C)cc1` came in with a half-inhibitory concentration (IC50) of 830 nM.

On to `COc1ccc2nc(-c3ccc(C(=O)NCCCN4CCN(c5cc(Cl)ccc5OC)CC4)cc3OC)[nH]c2c1`, for which the IC50 was 870 nM.

`COc1cc(NCCCNC(=O)c2cn(Cc3ccccc3)c3ccccc23)nc2ccccc12` registered an IC50 of 870 nM.

With `O=C(Cn1c(CCc2cccc(F)c2F)cc(=O)c2ccccc21)N(Cc1ccc(-c2ccc(C(F)(F)F)cc2)cc1)C1CCN(CCO)CC1`, the IC50 came out at 1320 nM.

Turning to `COc1cccc(OC)c1CN1CCC(N(C)CCCCCCCCCN2CCC(OC(=O)Nc3ccccc3-c3ccccc3)CC2)CC1`, the IC50 was determined as 320 nM.

Regarding `Cc1cccn2c(=O)c3cc(C(=O)NC4CCCCC4)c(=N)n(CCCn4ccnc4)c3nc12`, the IC50 came out at 750 nM.

`CN(C)c1cccc(-c2cnc3ccc(NCc4cccc(Cl)c4)nn23)c1` came in with an IC50 of 700 nM.

As to `CC(=O)Nc1ncc(C(=O)Nc2cccc(-c3cccc(-c4nc5ccccc5[nH]4)c3)c2)s1`, the IC50 came out at 810 nM.

Compound `Cn1cccc1C(=O)NCC(CCNc1cc(=O)c2ccccc2[nH]1)NCc1cc(Br)cc(Br)c1` (stereo unspecified) returned an IC50 of 910 nM.

Compound `O=c1cc(NC[C@H]2CCC[C@@H]2NC2CCCc3c2[nH]c2ccccc32)[nH]c2ccccc12` (stereo partly specified) yielded an IC50 of 790 nM.

`CN1CCN(CC(=O)Nc2cccc(-c3ccc(-c4nc5ccc(F)cc5[nH]4)cc3)c2)CC1` yielded an IC50 of 700 nM.

Take `CO/C(=C\C=C\c1cc2cc(Cl)c(Cl)cc2[nH]1)C(=O)NCCCN1CCN(c2ccc(OC)cc2)CC1`: the IC50 worked out at 700 nM.

`COc1cc(Nc2ccnc3cc(-c4ccccn4)ccc23)cc(OC)c1OC` displayed an IC50 of 910 nM.

The compound `CCC[C@@H]([C@@H](CC(C)C)C(=O)N[C@@H](CCCCNC(=O)c1cccc(OC)c1)C(=O)Nc1nccs1)N(O)C=O` displayed an IC50 of 100 nM.

In turn, `CN1CCC(c2csc3ccc(NC(=O)Nc4ccc(-c5ccncc5)c5ccccc45)cc23)CC1` displayed an IC50 of 1020 nM.

In the case of `CN(/N=C/C=C/c1ccc(Cl)cc1)c1nc(NCCc2ccc(O)cc2)nc(N2CCNCC2)n1`, the IC50 amounted to 870 nM.

The compound `CCCCCN1C(=O)C(c2ccccc2)(c2ccccc2)N=C1N` displayed an IC50 of 790 nM.

Compound `Cc1cccc2[nH]c(-c3ccc(-c4ccc(CN5CCOCC5)cc4)cc3)nc12` registered an IC50 of 820 nM.

`Cc1ccc(Nc2nc(C)cc(Nc3cccc(C#N)c3)n2)cc1` returned a 50% inhibitory concentration (IC50) of 980 nM.

`O=C(NCCNc1ccnc(Nc2ccc(F)cc2)n1)c1cc2ccccc2s1` yielded an IC50 of 750 nM.

For the compound `Cc1ccc(CNC(=O)[C@H](Cc2ccccc2)Nc2cc(C)nc(NCc3ccccc3C)n2)cc1`, the IC50 turned out to be 800 nM.

The compound `CCOC(=O)c1ccc(NC(=O)Nc2ccc(-c3ccc(-c4nc5ccccc5[nH]4)cc3)cc2)cc1` had an IC50 of 20 nM.

In the case of `CCCCCCC(C)c1cc(O)c2c(c1)OC(=O)CC2(CC)c1ccccn1` (stereo unspecified), the IC50 was 330 nM.

For the compound `CC[C@H]1CN2CC[C@H]1C[C@H]2[C@H](O)c1cc(-c2ccc(Cl)c(Cl)c2)nc2ccc(OC)cc12`, the IC50 was determined as 120 nM.

In turn, `Cc1cccc2[nH]c(-c3ccc(-c4cccc(CN5CCC(C(N)=O)CC5)c4)cc3)nc12` returned an IC50 of 1770 nM.

`CCCCCCCCS(=O)(=O)NCCCC1CCN(CCCCCNC(=O)C=Cc2ccc(Cl)c(Cl)c2)CC1` yielded an IC50 of 860 nM.

In turn, `c1ccc(-c2cc3cccc(-c4nc5ccncc5[nH]4)c3o2)cc1` registered an IC50 of 110 nM.

`O=C(Nc1ccc(NC2=NCCN2)cc1)Nc1ccc(NC2=NCCN2)cc1` yielded an IC50 of 850 nM.

`CC(C)n1ncc2c(C(=O)Nc3ccc(C#N)c(Cl)c3)cc(C3CC3)nc21` registered an IC50 of 960 nM.

The compound `Nc1ccc2nc(C=Cc3ccc(Cl)cc3)[nH]c2c1` displayed an IC50 of 940 nM.

Compound `Cn1ncc2ccc(Nc3nccc(-c4ccc5c(c4)c(N)nn5C)n3)cc21` returned an IC50 of 650 nM.

Consider `CC1(C)N=C(N)N=C(N)N1c1ccc(Oc2ccc(Cl)cc2)c(Cl)c1`, for which the IC50 came out at 80 nM.

The compound `CCNc1cc(C(=O)N[C@@H](Cc2ccccc2)[C@H](O)CNC23CCC(CC2)C3)cc(N2CCCCS2(=O)=O)c1` came in with an IC50 of 30 nM.

With `C[C@H](O)[C@@](C)(CO)NCc1ccc2c3c(cccc13)-c1ccccc1-2`, the IC50 worked out at 820 nM.

Turning to `Cc1ccc(NC(=O)c2cn(-c3ccccc3)nc2-c2ccc(F)cc2)cc1[N+](=O)[O-]`, the IC50 was 1000 nM.

As for `Cc1nccn1CCNC(=O)CN1CCC2(CCC1=O)CC(=O)c1ccccc1O2` (stereo unspecified), the IC50 amounted to 800 nM.

`Cc1ccc2[nH]ncc2c1N(CC1CCCCC1)c1ccnc(Nc2ccc(OCC(O)CN3CC=CCC3)cc2)n1` (stereo unspecified) returned a 50% inhibitory concentration (IC50) of 620 nM.

In the case of `Cn1c(Nc2nnc(C3CC3)s2)nc2cc(Nc3ccnc(Nc4cccc(CS(C)(=O)=O)c4)n3)ccc21`, the IC50 amounted to 680 nM.

`Cn1nccc1C(=O)NCCNCc1cccc(-c2cccc(-c3nc4ccc(C(F)(F)F)cc4[nH]3)c2)c1` returned an IC50 of 170 nM.

As to `Cc1cc2nc(-c3ccc(C(=O)NCc4ccc(C(C)(C)C)cc4)cc3)[nH]c2cc1C`, the IC50 is 770 nM.

`COc1ccc(CN2CCC(NCc3cccc(C(F)(F)F)c3)CC2)cc1` returned an IC50 of 750 nM.

The compound `O=C(Nc1ccc(-c2ccc(CN3CCNCC3)cc2)cc1)c1cccc(Cl)c1` gave an IC50 of 890 nM.

For the compound `COCCNCc1cccc(-c2cccc(CN(C(=O)Nc3ccccc3)C3CCN(Cc4ccccc4)CC3)c2)c1`, the IC50 amounted to 130 nM.

For `O=C(Nc1cccc(-c2ccc(-c3nc4ccc(F)cc4[nH]3)cc2)c1)Nc1ccc(Cl)c(Cl)c1`, the IC50 turned out to be 140 nM.

Take `O=C(Nc1nc(-c2ccccn2)cs1)c1ccc(S(=O)(=O)N2CCc3ccccc32)cc1`: the IC50 came out at 830 nM.

Take `CC(C)NCc1ccc(-c2cccc(NC(=O)c3ccc(C#N)cc3)c2)cc1`: the IC50 was 740 nM.

`CCCC/C=C(\Cl)c1ccc(O)c2c1C[C@H]1C[C@H]3[C@H](N(C)C)C(=O)C(C(N)=O)=C(O)[C@@]3(O)C(=O)C1=C2O` displayed an IC50 of 1090 nM.

`Cc1ccc(Cc2c(N)nc3nc(N)nc(N)c3c2C)cc1` displayed an IC50 of 190 nM.

`COc1ccc(Nc2nc(NC3CCN(C)CC3)cc(-c3ccc(OC)cc3)n2)cc1` displayed an IC50 of 540 nM.

Take `Cc1cc(N)c2cc(NC(=O)/C=C/c3ccc([N+](=O)[O-])cc3)ccc2n1`: the IC50 was 670 nM.

The compound `COc1cc2c(cc1OC)CC(NCCCCCCNCCc1ccc(Cl)cc1)CC2` (stereo unspecified) yielded an IC50 of 740 nM.

Consider `C[C@H]1CN(Cc2cccc(-c3cc(CNC(=O)c4cccc(CN5CCN(C/C=C/c6ccccc6)CC5)c4)ccc3F)c2)CCN1`, for which the 50% inhibitory concentration (IC50) is 850 nM.

As to `CC(=O)Nc1ccc(CN2CCC(NC(=O)c3ccc(-c4cccc(OC(C)C)c4)s3)CC2)cc1`, the IC50 is 1460 nM.

`O=C(c1ccc([N+](=O)[O-])o1)N1CCC(c2cn(Cc3cccc(F)c3)c3ccccc23)CC1`: the IC50 stood at 640 nM.

Compound `Cc1cc(O)c(C(C)C)cc1C1(c2cc(C(C)C)c(O)cc2C)OC(=O)c2ccccc21` displayed an IC50 of 870 nM.

Turning to `CCCC(=O)c1cnc2c(I)cccc2c1Nc1ccccc1C`, the IC50 stood at 1160 nM.

The compound `CCCCCCc1cc(O)c2c3c(c(=O)oc2c1)CCN(C)C3` had an IC50 of 670 nM.

`CC(C)C(NC(=O)c1c(F)cccc1F)C(=O)Nc1ccc(Cc2nc3ccccc3s2)cc1` (stereo unspecified) showed an IC50 of 450 nM.

Take `O=C(NCC1CCC(CNCCCc2ccccc2)CC1)c1cc(Cl)cc(Cl)c1` (stereo unspecified): the IC50 turned out to be 850 nM.

`CCn1cc(C(=O)O)c(=O)c2cc(F)c(N3CCN(S(=O)(=O)c4ccc(N)cc4)CC3)cc21`: the IC50 amounted to 920 nM.

For `COc1ccc2cc(-c3nc(-c4c(Cl)cccc4Cl)[nH]c3-c3ccnc(NCCC4CCCN4C)c3)ccc2c1` (stereo unspecified), the IC50 was 1030 nM.

Regarding `CCOC(=O)c1c(NC(=O)c2ccccc2)sc2c(O)c(CNC3CCCCC3)ccc12`, the IC50 is 750 nM.
